Measured values published in US20170107207A1, “AMINOPYRAZOLONE DERIVATIVE” (DAIICHI SANKYO COMPANY, LIMITED, priority 2014, published 2017).
Where a name gives a salt, the structure may show the parent alone.

Tests used:
TIP48/TIP49 complex = target: T1, TIP48/TIP49 complex (Homo sapiens, UniProt Q9Y230+Q9Y265); test: ATPase assay of TIP48/TIP49 complex (ADP-Glo); assay type: biochemical; conditions: concentration at which the ATPase activity was inhibited by 50%
T1 construct: made in house; host or cells: E. coli
T1 sequence (Q9Y230 whole entry): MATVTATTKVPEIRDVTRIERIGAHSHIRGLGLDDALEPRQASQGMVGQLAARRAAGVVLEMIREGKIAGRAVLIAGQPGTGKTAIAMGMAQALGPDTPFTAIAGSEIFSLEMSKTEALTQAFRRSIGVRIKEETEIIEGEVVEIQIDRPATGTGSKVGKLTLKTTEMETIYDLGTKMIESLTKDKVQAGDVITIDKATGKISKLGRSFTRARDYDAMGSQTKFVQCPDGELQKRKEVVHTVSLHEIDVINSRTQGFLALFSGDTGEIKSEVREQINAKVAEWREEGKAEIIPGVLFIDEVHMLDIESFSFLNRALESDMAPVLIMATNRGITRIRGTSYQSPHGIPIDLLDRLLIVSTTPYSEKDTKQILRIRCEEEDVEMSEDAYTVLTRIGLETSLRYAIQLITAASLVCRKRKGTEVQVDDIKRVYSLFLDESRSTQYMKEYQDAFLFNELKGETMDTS
T1 sequence (Q9Y265 whole entry): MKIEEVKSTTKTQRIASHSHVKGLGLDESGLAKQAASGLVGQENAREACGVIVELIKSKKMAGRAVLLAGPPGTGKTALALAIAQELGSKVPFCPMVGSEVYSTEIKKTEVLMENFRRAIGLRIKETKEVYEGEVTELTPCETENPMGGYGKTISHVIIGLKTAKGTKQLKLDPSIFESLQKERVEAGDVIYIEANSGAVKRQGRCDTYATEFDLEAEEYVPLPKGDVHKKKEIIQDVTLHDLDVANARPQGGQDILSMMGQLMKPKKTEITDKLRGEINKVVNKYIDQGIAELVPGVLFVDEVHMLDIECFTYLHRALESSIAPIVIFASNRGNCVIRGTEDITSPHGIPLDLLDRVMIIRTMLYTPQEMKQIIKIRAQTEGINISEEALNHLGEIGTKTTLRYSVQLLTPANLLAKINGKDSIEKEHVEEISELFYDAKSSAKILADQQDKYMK
From the text: The ATPase activity of the TIP48/TIP49 complex can be measured by use of an ATPase assay described below in Test Examples 1 and 2. The ATPase activity of the TIP48/TIP49 complex can be measured, as described below in the Test Examples, for example, by using recombinant human TIP48 and TIP49 proteins (hereinafter, referred to as rTIP48 and rTIP49) and ATP in the presence or absence of a test compound and measuring the amount of ADP formed through hydrolysis by the ATPase activity of the TIP48/TIP49 complex, using ADP-Glo. Alternatively, the ATPase activity of the TIP48/TIP49 complex can be measured by a method described in, for example, J. Mol. Biol. 366, 172-179 (2007).
An ATPase assay of a TIP48/TIP49 complex was conducted using rTIP48 and rTIP49. Human TIP48 and TIP49 DNAs were purchased from Open Biosystems. Human TIP48 and TIP49 cDNAs cloned by PCR using the purchased DNAs were each integrated into plasmids for expression in E. coli and expressed in E. coli to obtain rTIP48 and rTIP49.
A test compound was dissolved at 10 mM using DMSO. The solution was diluted to 10 concentrations as 4-fold serial dilutions from 10 mM using DMSO.
A 2×assay buffer (100 mM Tris-HCl, pH 7.5, 100 mM NaCl, 40 mM MgCl2, 2 mM DTT, 20 μM ATP, and 0.2 mg/mL BSA) was dispensed at 24.5 μL/well to a 384-well assay plate.
Test compound solutions were dispensed thereto at 1 μL/well. Subsequently, the solution in each well was mixed using a plate mixer.
rTIP48 and rTIP49 were diluted to a concentration of 50 μg/mL using sterilized water. The diluted solution was dispensed at 24.5 μL/well to the 384-well assay plate. Subsequently, the solution in each well was mixed using a plate mixer (final concentration: 24.5 μg/mL) (concentration of each test compound solution: 200 μM, 50 μM, 12.5 μM, 3.12 μM, 0.78 μM, 0.20 μM, 0.049 μM, 0.012 μM, 0.003 μM, and 0.0007 μM; DMSO concentration: 2%).
After the mixing using the plate mixer, the assay plate was left standing at room temperature for 1.5 hours.
5 μL of the solution in each well was transferred to a white assay plate, and ADP-Glo Reagent from ADP-Glo Kinase Assay (Promega Corp., catalog No. V9101) was dispensed thereto at 5 μL/well. After completion of the reaction, the plate was left standing at room temperature for 40 minutes. Kinase Detection Reagent was further dispensed thereto at 5 μL/well, and the plate was left standing at room temperature for 30 minutes. Then, luminescence intensity was measured using a plate reader.
The ATPase inhibitory activity was calculated according to the expression given below.
The luminescence intensity of a well supplemented with the test compound and the TIP48/TIP49 complex was defined as A. The luminescence intensity of a well supplemented with only the TIP48/TIP49 complex was defined as B. The luminescence intensity of a well supplemented with neither the test compound nor the TIP48/TIP49 complex was defined as C. The ratio between the test compound-supplemented group and the test compound-nonsupplemented group (T/C value) was determined according to the following calculation expression:
The dose-response curve was calculated using GraphPad Prism 4 from the concentration of each of the serially diluted test compounds and the ATPase inhibitory activity (%) at this concentration.

[1] = system: human lymphoma cell line RAMOS cells; test: Cell growth inhibition test using RAMOS cell, ATP assay (CellTiter-Glo); assay type: cell-based; conditions: Homo sapiens, Ramos, 72 h, cultured 3 days, 50% growth inhibition concentration
Description: A cell growth inhibition test was carried out by treating human lymphoma cell line RAMOS cells with a test compound for a given period and then counting the number of viable cells by MTT assay or CellTiter-Glo Luminescent Cell Viability Assay (manufactured by Promega Corp.; hereinafter, referred to as ATP assay).
RAMOS cells were inoculated at 4000 cells/40 μL/well to a 384-well plate containing the compound prepared in advance at predetermined concentrations. The cells thus inoculated were cultured at 37° C. for 3 days under 5% CO2. In order to measure a cell survival rate, CellTiter-Glo Reagent was added in an amount corresponding to 1/4 of the amount of the culture solution at the day of cell inoculation and at the final culture date and stirred at room temperature for 2 minutes. Then, luminescence intensity was measured using a plate reader. The cell survival rate was calculated according to the expression given below.
The number of viable cells and luminescence intensity have been confirmed to correlate with each other. Therefore, the rate of cell growth was calculated according to the following expression: Rate of cell growth (T/C %) of a test compound-supplemented well=100×[(B−C)/(A−C)] wherein A represents the luminescence intensity (final culture date) of a test compound-free well; B represents the luminescence intensity (final culture date) of a test compound-containing well; and C represents the luminescence intensity (day of cell inoculation) of a well at the start of contact of the cells with the test compound.
T/C % at each concentration of the test compound was determined. The concentration at which the test compound offered 50% growth rate was calculated as a GI50 value from the growth rates at two points interpolating 50% and the concentrations, and is shown in Table 56.

Row | Structure (SMILES) | IC50 (TIP48/TIP49 complex) [µM] | GI50 [1] [µM]
1 | CCOc1ncc(Cl)cc1C(=O)NCC(C)(C)CC(=O)Nc1c(C[C@H](C)N(C)C)n(C)n(-c2ccccc2)c1=O [Example 53, 5-Chloro-N-[4-({5-[(2S)-2-(dimethylamino)propyl]-1-methyl-3-oxo-2-phenyl-2,3-dihydro-1H-pyrazol-4-yl}amino)-2,2-dimethyl-4-oxobutyl]-2-ethoxypyridine-3-carboxamide] | 0.063 | 0.24
2 | Cc1cc2cc(Cl)cc(C(=O)NCC(C)(C)CC(=O)Nc3c(C[C@H](C)N(C)C)n(C)n(-c4ccccc4)c3=O)c2o1 [Example 54, 5-Chloro-N-[4-({5-[(2S)-2-(dimethylamino)propyl]-1-methyl-3-oxo-2-phenyl-2,3-dihydro-1H-pyrazol-4-yl}amino)-2,2-dimethyl-4-oxobutyl]-2-methylbenzofuran-7-carboxamide] | 0.094 | 0.14
3 | CCOc1ccc(Cl)cc1C(=O)NCC(C)(C)CC(=O)Nc1c(CC(C)(C)N)n(C)n(-c2ccccc2)c1=O [Example 55, N-(4-{[5-(2-Amino-2-methylpropyl)-1-methyl-3-oxo-2-phenyl-2,3-dihydro-1H-pyrazol-4-yl]amino}-2,2-dimethyl-4-oxobutyl)-5-chloro-2-ethoxybenzamide] | 0.043 | 0.17
4 | CCOc1ccc(Cl)cc1C(=O)NCC(C)(C)CC(=O)Nc1c(CC(C)(C)N(C)C)n(C)n(-c2ccccc2)c1=O [Example 56, 5-Chloro-N-[4-({5-[2-(dimethylamino)-2-methylpropyl]-1-methyl-3-oxo-2-phenyl-2,3-dihydro-1H-pyrazol-4-yl}amino)-2,2-dimethyl-4-oxobutyl]-2-ethoxybenzamide] | 0.04 | 0.12
5 | CCOc1ncc(Cl)cc1C(=O)NCC(C)(C)CC(=O)Nc1c(CC(C)(C)N(C)C)n(C)n(-c2ccccc2)c1=O [Example 57, 5-Chloro-N-[4-({5-[2-(dimethylamino)-2-methylpropyl]-1-methyl-3-oxo-2-phenyl-2,3-dihydro-1H-pyrazol-4-yl}amino)-2,2-dimethyl-4-oxobutyl]-2-ethoxypyridine-3-carboxamide] | 0.07 | 0.19
6 | Cc1cc2cc(Cl)cc(C(=O)NCC(C)(C)CC(=O)Nc3c(CC(C)(C)N)n(C)n(-c4ccccc4)c3=O)c2o1 [Example 58, N-(4-{[5-(2-amino-2-methylpropyl)-1-methyl-3-oxo-2-phenyl-2,3-dihyro-1H-pyrazol-4-yl]amino}-2,2-dimethyl-4-oxobutyl)-5-chloro-2-methylbenzofuran-7-carboxamide] | 0.058 | 0.11
7 | CCOc1ccc(Cl)cc1C(=O)NCC(C)(C)CC(=O)Nc1c(CC(C)(C)NC)n(C)n(-c2ccccc2)c1=O [Example 59, 5-Chloro-N-[2,2-dimethyl-4-({1-methyl-5-[2-methyl-2-(methylamino)propyl]-3-oxo-2-phenyl-2,3-dihydro-1H-pyrazol-4-yl}amino)-4-oxobutyl]-2-ethoxybenzamide] | 0.034 | 0.15
8 | CCOc1ncc(Br)cc1C(=O)NCC(C)(C)CC(=O)Nc1c(CC(C)(C)NC)n(C)n(-c2ccccc2)c1=O [Example 60, 5-Bromo-N-[2,2-dimethyl-4-({1-methyl-5-[2-methyl-2-(methylamino)propyl]-3-oxo-2-phenyl-2,3-dihydro-1H-pyrazol-4-yl}amino)-4-oxobutyl]-2-ethoxypyridine-3-carboxamide] | 0.094 | 0.37
9 | CNC(C)(C)Cc1c(NC(=O)CC(C)(C)CNC(=O)c2cc(Cl)cc3cc(C)oc23)c(=O)n(-c2ccccc2)n1C [Example 61, 5-Chloro-N-[2,2-dimethyl-4-({1-methyl-5-[2-methyl-2-(methylamino)propyl]-3-oxo-2-phenyl-2,3-dihydro-1H-pyrazol-4-yl}amino)-4-oxobutyl]-2-methylbenzofuran-7-carboxamide] | 0.052 | 0.39
10 | CCOc1ccc(Cl)cc1C(=O)NCC(CF)(CF)CC(=O)Nc1c(CCN(C)C)n(C)n(-c2ccccc2)c1=O [Example 62, 5-Chloro-N-[4-({5-[2-(dimethylamino)ethyl]-1-methyl-3-oxo-2-phenylpyrazolo-4-yl}amino)-2,2-bis(fluoromethyl)-4-oxobutyl]-2-ethoxybenzamide] | 0.15 | 0.5
11 | CCOc1cc(F)c(Cl)cc1C(=O)NCC(C)(C)CC(=O)Nc1c(CCCN(C)C)n(C)n(-c2ccccc2)c1=O [Example 64, 5-Chloro-N-[4-({5-[3-(dimethylamino)propyl]-1-methyl-3-oxo-2-phenyl-2,3-dihydro-1H-pyrazol-4-yl}amino)-2,2-dimethyl-4-oxobutyl]-2-ethoxy-4-fluorobenzamide monohydrochloride] | 0.099 | 0.19
12 | Cc1cc2cc(Cl)cc(C(=O)NCC(C)(C)CC(=O)Nc3c(CCCN(C)C)n(C)n(-c4ccccc4)c3=O)c2o1 [Example 65, 5-Chloro-N-[4-({5-[3-(dimethylamino)propyl]-1-methyl-3-oxo-2-phenyl-2,3-dihydro-1H-pyrazol-4-yl}amino)-2,2-dimethyl-4-oxobutyl]-2-methylbenzofuran-7-carboxamide] | 0.044 | 0.2
13 | CCOc1ccc(Cl)cc1C(=O)NCC(C)(C)CC(=O)Nc1c(C(C)CN(C)C)n(C)n(-c2ccccc2)c1=O (stereo not drawn) [Example 66, 5-Chloro-N-[4-({5-[2-(dimethylamino)-1-methylethyl]-1-methyl-3-oxo-2-phenyl-2,3-dihydro-1H-pyrazol-4-yl}amino)-2,2-dimethyl-4-oxobutyl]-2-ethoxybenzamide] | 0.058 | 0.16
14 | CCOc1ccc(Cl)cc1C(=O)NCC(C)(C)CC(=O)Nc1c([C@@H](C)CN(C)C)n(C)n(-c2ccccc2)c1=O [Example 67, 5-Chloro-N-[4-({5-[(1S)-2-(dimethylamino)-1-methylethyl]-1-methyl-3-oxo-2-phenyl-2,3-dihydro-1H-pyrazol-4-yl}amino)-2,2-dimethyl-4-oxobutyl]-2-ethoxybenzamide] | 0.036 | 0.15
15 | CCOc1cc(F)c(Cl)cc1C(=O)NCC(C)(C)CC(=O)Nc1c(C(C)CN(C)C)n(C)n(-c2ccccc2)c1=O (stereo not drawn) [Example 69, 5-Chloro-N-[4-({5-[2-(dimethylamino)-1-methylethyl]-1-methyl-3-oxo-2-phenyl-2,3-dihydro-1H-pyrazol-4-yl}amino)-2,2-dimethyl-4-oxobutyl]-2-ethoxy-4-fluorobenzamide] | 0.065 | 0.16
